Assay results as given in patent publication US20240245682A1, “ALPHA-V-BETA-8 INTEGRIN INHIBITORS AND USES THEREOF” (Pliant Therapeutics, Inc., priority 2022, published 2024).

Legend:
Assay in all cases: AlphaScreen proximity-based integrin binding assay with TGF-b1 LAP
Settings in all cases: values given as ranges
human integrin αVβ6 = human integrin αVβ6 (Homo sapiens, UniProt P06756+P18564)
Outline: (§1)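 Purified human integrin incubated with compound, TGF-b1 LAP, biotinylated anti-LAP antibody and acceptor beads for 2 h, then streptavidin donor beads 30 min, room temperature, in 50 mM Tris-HCl pH 7.5, 0.1% BSA, 1 mM CaCl2/MgCl2. AlphaScreen signal (680 nm excitation, 520-620 nm emission); IC50 by four-parameter fit.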

human integrin αVβ8 = human integrin αVβ8 (Homo sapiens, UniProt P06756+P26012)
Chain of human integrin αVβ8 (P06756 31-992 limits assumed): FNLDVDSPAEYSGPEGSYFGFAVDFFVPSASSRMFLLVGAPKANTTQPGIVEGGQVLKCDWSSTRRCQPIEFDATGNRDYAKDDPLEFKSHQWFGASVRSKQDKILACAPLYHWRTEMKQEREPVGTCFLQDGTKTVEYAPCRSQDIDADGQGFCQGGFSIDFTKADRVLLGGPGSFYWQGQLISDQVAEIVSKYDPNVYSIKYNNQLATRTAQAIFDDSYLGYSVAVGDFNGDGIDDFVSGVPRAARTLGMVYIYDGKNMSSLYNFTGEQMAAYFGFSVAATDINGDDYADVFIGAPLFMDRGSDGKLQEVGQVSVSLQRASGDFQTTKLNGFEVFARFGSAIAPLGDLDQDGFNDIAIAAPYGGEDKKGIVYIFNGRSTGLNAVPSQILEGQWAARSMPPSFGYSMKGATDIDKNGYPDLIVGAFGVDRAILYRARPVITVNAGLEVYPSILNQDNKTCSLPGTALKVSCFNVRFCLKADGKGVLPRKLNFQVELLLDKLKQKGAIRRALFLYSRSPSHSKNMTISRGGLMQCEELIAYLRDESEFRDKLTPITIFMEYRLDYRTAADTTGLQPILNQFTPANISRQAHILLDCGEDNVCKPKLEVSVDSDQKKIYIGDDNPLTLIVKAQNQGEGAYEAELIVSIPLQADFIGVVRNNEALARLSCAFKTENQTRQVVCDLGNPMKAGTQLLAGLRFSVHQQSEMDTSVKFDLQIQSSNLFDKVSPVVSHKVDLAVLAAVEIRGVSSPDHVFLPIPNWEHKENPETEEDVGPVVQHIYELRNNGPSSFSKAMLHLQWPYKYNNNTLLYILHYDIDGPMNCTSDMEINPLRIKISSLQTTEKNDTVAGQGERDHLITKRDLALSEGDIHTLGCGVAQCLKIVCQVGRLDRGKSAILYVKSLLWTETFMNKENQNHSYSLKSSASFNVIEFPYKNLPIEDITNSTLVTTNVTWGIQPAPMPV
Chain of human integrin αVβ8 (P26012 43-684 limits assumed): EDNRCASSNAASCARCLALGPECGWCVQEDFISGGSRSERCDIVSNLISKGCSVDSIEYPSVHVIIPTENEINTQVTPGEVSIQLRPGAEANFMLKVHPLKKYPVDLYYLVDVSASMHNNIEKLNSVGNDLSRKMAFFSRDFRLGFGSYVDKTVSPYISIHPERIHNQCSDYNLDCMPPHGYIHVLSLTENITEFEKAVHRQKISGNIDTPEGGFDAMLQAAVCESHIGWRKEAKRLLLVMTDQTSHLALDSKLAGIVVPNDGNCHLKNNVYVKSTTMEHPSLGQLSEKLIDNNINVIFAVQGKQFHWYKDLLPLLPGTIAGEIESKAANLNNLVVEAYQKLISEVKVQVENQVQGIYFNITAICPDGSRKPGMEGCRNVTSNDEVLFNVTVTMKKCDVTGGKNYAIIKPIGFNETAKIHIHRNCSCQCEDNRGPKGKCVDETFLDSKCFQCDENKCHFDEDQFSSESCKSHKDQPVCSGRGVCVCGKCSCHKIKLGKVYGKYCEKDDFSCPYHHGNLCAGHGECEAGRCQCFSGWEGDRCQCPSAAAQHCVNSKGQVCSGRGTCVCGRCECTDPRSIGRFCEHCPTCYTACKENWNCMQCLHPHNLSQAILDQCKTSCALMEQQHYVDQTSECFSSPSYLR
Outline: as §1

human integrin αVβ1 = human integrin αVβ1 (Homo sapiens, UniProt P05556+P06756)
Chain of human integrin αVβ1 (P06756 31-992 limits assumed): as the sequence (P06756 31-992 limits assumed) above
Chain of human integrin αVβ1 (P05556 21-728 limits assumed): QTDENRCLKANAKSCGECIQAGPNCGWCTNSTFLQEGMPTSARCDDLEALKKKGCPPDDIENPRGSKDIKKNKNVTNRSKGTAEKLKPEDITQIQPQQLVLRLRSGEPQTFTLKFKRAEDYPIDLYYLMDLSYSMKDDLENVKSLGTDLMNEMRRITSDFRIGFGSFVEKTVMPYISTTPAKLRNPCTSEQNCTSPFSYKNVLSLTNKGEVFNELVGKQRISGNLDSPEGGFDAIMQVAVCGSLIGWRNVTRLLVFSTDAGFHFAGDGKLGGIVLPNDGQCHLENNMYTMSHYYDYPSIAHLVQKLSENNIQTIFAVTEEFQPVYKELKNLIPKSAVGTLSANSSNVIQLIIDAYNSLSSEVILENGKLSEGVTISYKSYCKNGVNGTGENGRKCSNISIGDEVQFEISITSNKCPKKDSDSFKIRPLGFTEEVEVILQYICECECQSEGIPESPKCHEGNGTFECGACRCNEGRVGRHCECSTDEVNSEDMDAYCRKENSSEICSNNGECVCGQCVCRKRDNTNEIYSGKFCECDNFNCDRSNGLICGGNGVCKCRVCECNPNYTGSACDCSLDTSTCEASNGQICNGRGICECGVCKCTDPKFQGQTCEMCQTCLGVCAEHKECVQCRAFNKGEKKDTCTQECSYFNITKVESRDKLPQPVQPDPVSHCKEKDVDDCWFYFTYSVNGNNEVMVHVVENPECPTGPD
Outline: as §1

Chain of human integrin αVβ6 (P06756 31-992 limits assumed): as the sequence (P06756 31-992 limits assumed) above
Chain of human integrin αVβ6 (P18564 22-707 limits assumed): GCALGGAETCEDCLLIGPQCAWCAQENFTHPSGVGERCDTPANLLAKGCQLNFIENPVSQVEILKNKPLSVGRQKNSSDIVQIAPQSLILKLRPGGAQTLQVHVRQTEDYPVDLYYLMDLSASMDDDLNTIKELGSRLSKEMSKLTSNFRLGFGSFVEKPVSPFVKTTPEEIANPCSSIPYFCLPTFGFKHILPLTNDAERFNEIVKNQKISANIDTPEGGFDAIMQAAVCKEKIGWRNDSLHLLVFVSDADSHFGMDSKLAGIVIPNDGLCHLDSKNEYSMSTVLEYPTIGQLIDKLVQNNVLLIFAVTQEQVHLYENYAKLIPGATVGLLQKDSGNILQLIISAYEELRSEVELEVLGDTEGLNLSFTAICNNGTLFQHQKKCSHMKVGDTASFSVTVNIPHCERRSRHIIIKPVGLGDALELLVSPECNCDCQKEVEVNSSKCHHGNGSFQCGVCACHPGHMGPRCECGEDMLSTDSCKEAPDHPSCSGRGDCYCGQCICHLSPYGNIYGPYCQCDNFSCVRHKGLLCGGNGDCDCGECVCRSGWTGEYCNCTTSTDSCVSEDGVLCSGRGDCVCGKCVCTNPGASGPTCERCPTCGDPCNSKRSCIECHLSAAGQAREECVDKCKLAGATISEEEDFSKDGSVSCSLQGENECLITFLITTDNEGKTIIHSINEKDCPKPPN

Row | Structure (SMILES) | IC50 (human integrin αVβ6) [nM] | IC50 (human integrin αVβ8) [nM] | IC50 (human integrin αVβ1) [nM]
1 | O=C(O)[C@H](CCOCCCCc1ccc2c(n1)NCCC2)NC(=O)C1(C(F)F)CCOC1 (stereo partly drawn) [Compound 83, N-(3-(difluoromethyl)tetrahydrofuran-3-carbonyl)-O-(4-(5,6,7,8-tetrahydro-1,8-naphthyridin-2-yl)butyl)-L-homoserine] | 250 to 500 | 50 to 150 | < 50
2 | O=C(O)[C@H](CCOCCCCc1ccc2c(n1)NCCC2)NC(=O)C1(n2c(=O)ccc3ccccc32)CC1 [Compound 90, N-(1-(2-oxoquinolin-1(2H)-yl)cyclopropane-1-carbonyl)-O-(4-(5,6,7,8-tetrahydro-1,8-naphthyridin-2-yl)butyl)-L-homoserine] | > 500 | < 50 | 50 to 150
3 | Cn1nccc1C1(C(=O)N[C@@H](CCOCCCCc2ccc3c(n2)NCCC3)C(=O)O)CC1 [Compound 54, N-(1-(1-methyl-1H-pyrazol-5-yl)cyclopropane-1-carbonyl)-O-(4-(5,6,7,8-tetrahydro-1,8-naphthyridin-2-yl)butyl)-L-homoserine] | ≥ 500 | 50 to 150 | < 50
4 | C[C@H](C(=O)N[C@@H](CCOCCCCc1ccc2c(n1)NCCC2)C(=O)O)c1ccccc1 [Compound 3, N—((S)-2-phenylpropanoyl)-O-(4-(5,6,7,8-tetrahydro-1,8-naphthyridin-2-yl)butyl)-L-homoserine] | ≥ 500 | < 50 | < 50
5 | CC(C)(C(=O)N[C@@H](CCOCCCCc1ccc2c(n1)NCCC2)C(=O)O)c1ccccc1 [Compound 2, N-(2-methyl-2-phenylpropanoyl)-O-(4-(5,6,7,8-tetrahydro-1,8-naphthyridin-2-yl)butyl)-L-homoserine] | ≥ 500 | 50 to 150 | < 50
6 | O=C(O)[C@H](CCOCCCCc1ccc2c(n1)NCCC2)NC(=O)C1(n2ccc(Cl)n2)CC1 [Compound 55, N-(1-(3-chloro-1H-pyrazol-1-yl)cyclopropane-1-carbonyl)-O-(4-(5,6,7,8-tetrahydro-1,8-naphthyridin-2-yl)butyl)-L-homoserine] | ≥ 500 | 50 to 150 | < 50
7 | Cn1cc(C(F)(F)F)c(C2(C(=O)N[C@@H](CCOCCCCc3ccc4c(n3)NCCC4)C(=O)O)CC2)n1 [Compound 77, N-(1-(1-methyl-4-(trifluoromethyl)-1H-pyrazol-3-yl)cyclopropane-1-carbonyl)-O-(4-(5,6,7,8-tetrahydro-1,8-naphthyridin-2-yl)butyl)-L-homoserine] | ≥ 500 | < 50 | < 50
8 | O=C(O)[C@H](CCOCCCCc1ccc2c(n1)NCCC2)NC(=O)C1(c2c(Cl)cc[nH]c2=O)CC1 [Compound 68, N-(1-(4-chloro-2-oxo-1,2-dihydropyridin-3-yl)cyclopropane-1-carbonyl)-O-(4-(5,6,7,8-tetrahydro-1,8-naphthyridin-2-yl)butyl)-L-homoserine] | ≥ 500 | < 50 | < 50
9 | O=C(O)[C@H](CCOCCCCc1ccc2c(n1)NCCC2)NC(=O)C1(C(F)(F)F)CCCCC1 [Compound 84, O-(4-(5,6,7,8-tetrahydro-1,8-naphthyridin-2-yl)butyl)-N-(1-(trifluoromethyl)cyclohexane-1-carbonyl)-L-homoserine] | 250 to 500 | < 50 | < 50
10 | O=C(N[C@@H](CCOCCCCc1ccc2c(n1)NCCC2)C(=O)O)c1ccnn1-c1ccccc1 [Compound 99, N-(1-phenyl-1H-pyrazole-5-carbonyl)-O-(4-(5,6,7,8-tetrahydro-1,8-naphthyridin-2-yl)butyl)-L-homoserine] | < 50 | 50 to 150 | < 50
11 | O=C(O)[C@H](CCOCCCCc1ccc2c(n1)NCCC2)NC(=O)C1(c2ncc(F)cc2Cl)CC1 [Compound 14, N-(1-(3-chloro-5-fluoropyridin-2-yl)cyclopropane-1-carbonyl)-O-(4-(5,6,7,8-tetrahydro-1,8-naphthyridin-2-yl)butyl)-L-homoserine] | ≥ 500 | < 50 | < 50
12 | Cc1ncnc(O)c1C1(C(=O)N[C@@H](CCOCCCCc2ccc3c(n2)NCCC3)C(=O)O)CC1 [Compound 102, N-(1-(4-hydroxy-6-methylpyrimidin-5-yl)cyclopropane-1-carbonyl)-O-(4-(5,6,7,8-tetrahydro-1,8-naphthyridin-2-yl)butyl)-L-homoserine] | > 500 | 50 to 150 | 50 to 150
13 | O=C(O)[C@H](CCOCCCCc1ccc2c(n1)NCCC2)NC(=O)C1(c2ncccc2CF)CC1 [Compound 52, N-(1-(3-(fluoromethyl)pyridin-2-yl)cyclopropane-1-carbonyl)-O-(4-(5,6,7,8-tetrahydro-1,8-naphthyridin-2-yl)butyl)-L-homoserine] | ≥ 500 | < 50 | < 50
